Measured values taken from ChEMBL document CHEMBL1153603, “Phenethyl pyridines with non-polar internal substituents as selective ligands for estrogen receptor beta” (Eur J Med Chem, 2009).

The compounds below were run against T1, Estrogen receptor beta (Homo sapiens, UniProt Q92731) (assay: Displacement of [3H]estradiol form human ERbeta receptor assessed as relative binding affinity by competitive radiometric binding assay relative to estradiol). Settings: not given.
T1 sequence (Q92731 whole entry): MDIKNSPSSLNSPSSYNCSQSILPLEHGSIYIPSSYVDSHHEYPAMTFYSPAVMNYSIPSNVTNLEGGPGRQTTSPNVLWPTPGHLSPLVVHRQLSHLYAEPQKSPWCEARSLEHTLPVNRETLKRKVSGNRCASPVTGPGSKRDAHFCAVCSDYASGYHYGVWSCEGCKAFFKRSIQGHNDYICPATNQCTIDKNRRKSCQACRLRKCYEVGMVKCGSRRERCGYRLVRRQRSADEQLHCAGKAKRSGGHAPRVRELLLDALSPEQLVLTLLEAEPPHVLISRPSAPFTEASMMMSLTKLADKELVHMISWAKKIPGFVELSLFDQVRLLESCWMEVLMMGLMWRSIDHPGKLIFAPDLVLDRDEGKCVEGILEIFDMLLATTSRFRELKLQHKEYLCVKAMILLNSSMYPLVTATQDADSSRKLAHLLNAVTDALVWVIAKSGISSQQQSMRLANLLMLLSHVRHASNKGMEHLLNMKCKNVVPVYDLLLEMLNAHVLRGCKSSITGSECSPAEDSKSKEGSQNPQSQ

| Compound | RBA |
| --- | --- |
| CC(Cc1ccc(O)cc1)c1ccc(O)cn1 (stereo not given) | 0.27% |
| CCC(Cc1ccc(O)cn1)c1ccc(O)cc1 (stereo not given) | 0.15% |
| CCC(Cc1ccc(O)cc1)c1ccc(O)cn1 (stereo not given) | 0.72% |
| Oc1ccc(CCc2ccc(O)cn2)cc1 | 0.025% |
| CCCC(Cc1ccc(O)cc1)c1ccc(O)cn1 (stereo not given) | 0.101% |
| CC[C@H](c1ccc(O)cn1)[C@@H](C)c1ccc(O)cc1 (relative stereo) | 5.3% |
| CC(Cc1ccc(O)cn1)c1ccc(O)cc1 (stereo not given) | 0.17% |

More lines, now with the values ahead:

| RBA | Compound |
| --- | --- |
| 0.023% | CC[C@H](c1ccccc1)[C@H](CC)c1ccc(O)cn1 |
| 7.5% | CC[C@H](c1ccc(O)cn1)[C@@H](CC)c1ccc(O)cc1 (relative stereo) |
| 0.67% | CC[C@H](c1ccc(O)cc1)[C@H](CC)c1ccc(O)cn1 (relative stereo) |
| 0.684% | CC[C@H](c1ccc(O)cn1)[C@@H](CC)c1ccccc1 |
| 0.119% | CC[C@H](c1ccc(O)cn1)[C@H](C)c1ccc(O)cc1 (relative stereo) |

These compounds were tested against T2, Estrogen receptor (Homo sapiens, UniProt P03372) (assay: Activity at human ERalpha expressed in HEC1 cells co-transfected with 2ERE-pS2-Luc assessed as relative transcriptional potency by luciferase reporter assay). Settings: not given.
T2 sequence (P03372 whole entry): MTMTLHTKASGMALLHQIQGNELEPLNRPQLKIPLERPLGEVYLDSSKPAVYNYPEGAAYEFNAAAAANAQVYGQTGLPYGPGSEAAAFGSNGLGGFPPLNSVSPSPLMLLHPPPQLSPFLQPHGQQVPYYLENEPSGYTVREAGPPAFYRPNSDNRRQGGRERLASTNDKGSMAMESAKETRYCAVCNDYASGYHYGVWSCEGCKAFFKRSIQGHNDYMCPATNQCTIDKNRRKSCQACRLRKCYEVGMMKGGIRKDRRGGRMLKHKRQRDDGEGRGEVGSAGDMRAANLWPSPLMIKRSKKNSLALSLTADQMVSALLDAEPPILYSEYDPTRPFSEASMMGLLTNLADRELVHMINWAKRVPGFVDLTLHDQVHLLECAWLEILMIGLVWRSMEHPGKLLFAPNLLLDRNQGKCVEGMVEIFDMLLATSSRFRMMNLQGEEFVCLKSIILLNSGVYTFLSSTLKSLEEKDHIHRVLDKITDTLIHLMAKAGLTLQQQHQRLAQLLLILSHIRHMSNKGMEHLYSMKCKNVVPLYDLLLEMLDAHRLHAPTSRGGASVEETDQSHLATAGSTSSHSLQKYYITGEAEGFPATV
Type: cell-based, HEC-1

| Compound | EC50 |
| --- | --- |
| CC(Cc1ccc(O)cc1)c1ccc(O)cn1 (stereo not given) | 330 nM |
| CCC(Cc1ccc(O)cc1)c1ccc(O)cn1 (stereo not given) | 65 nM |
| CC[C@H](c1ccc(O)cn1)[C@@H](C)c1ccc(O)cc1 (relative stereo) | 0.11 nM |
| CC(Cc1ccc(O)cn1)c1ccc(O)cc1 (stereo not given) | 440 nM |

The remaining lines, values ahead:

| EC50 | Compound |
| --- | --- |
| 0.11 nM | CC[C@H](c1ccc(O)cn1)[C@@H](CC)c1ccc(O)cc1 (relative stereo) |
| 16 nM | CC[C@H](c1ccc(O)cc1)[C@H](CC)c1ccc(O)cn1 (relative stereo) |

What follows are compounds tested against T1, Estrogen receptor beta (assay: Activity at human ERbeta expressed in HEC1 cells co-transfected with 2ERE-pS2-Luc assessed as relative transcriptional potency by luciferase reporter assay). Settings: not given.
Type: cell-based, HEC-1

| Compound | EC50 |
| --- | --- |
| CC(Cc1ccc(O)cc1)c1ccc(O)cn1 (stereo not given) | 60 nM |
| CCC(Cc1ccc(O)cc1)c1ccc(O)cn1 (stereo not given) | 17 nM |
| CC[C@H](c1ccc(O)cn1)[C@@H](C)c1ccc(O)cc1 (relative stereo) | 1.1 nM |
| CC(Cc1ccc(O)cn1)c1ccc(O)cc1 (stereo not given) | 170 nM |

Now from value to compound:

| EC50 | Compound |
| --- | --- |
| 0.61 nM | CC[C@H](c1ccc(O)cn1)[C@@H](CC)c1ccc(O)cc1 (relative stereo) |
| 26 nM | CC[C@H](c1ccc(O)cc1)[C@H](CC)c1ccc(O)cn1 (relative stereo) |

These compounds were tested against T1, Estrogen receptor beta (assay: Activity at human ERbeta expressed in HEC1 cells co-transfected with 2ERE-pS2-Luc assessed as relative transcriptional potency by luciferase reporter assay relative to estradiol). Settings: HEC-1.
Type: cell-based

| Compound | Activity |
| --- | --- |
| CC(Cc1ccc(O)cc1)c1ccc(O)cn1 (stereo not given) | 0.83% |
| CCC(Cc1ccc(O)cc1)c1ccc(O)cn1 (stereo not given) | 2.94% |
| CC[C@H](c1ccc(O)cn1)[C@@H](C)c1ccc(O)cc1 (relative stereo) | 45% |
| CC(Cc1ccc(O)cn1)c1ccc(O)cc1 (stereo not given) | 0.29% |

The remaining lines, values ahead:

| Activity | Compound |
| --- | --- |
| 82% | CC[C@H](c1ccc(O)cn1)[C@@H](CC)c1ccc(O)cc1 (relative stereo) |
| 1.9% | CC[C@H](c1ccc(O)cc1)[C@H](CC)c1ccc(O)cn1 (relative stereo) |
